Like-named read-outs stand apart in the source and are kept apart here. Marks after values point to notes of the source that are not given here.
What was measured:
Assay type in all cases: physicochemical
[1] = Storage at elevated temperature/humidity, solid form checked by XRPD
Procedure: Samples 1 and 2 were characterized by XRPD at various conditions. XRPD patterns were collected for the samples at ambient condition as the samples were provided; at variable temperature (VT-XRPD); at variable humidity (VH-XRPD); after the samples were exposed to 40° C./75% RH for 1 week and 25° C./97% RH for 1 week, respectively; and after a GVS measurement wherein the samples were exposed to 0-90% RH. Samples 1 and 2 were also characterized by ^1H NMR, TGA, DSC, KF, IC, GVS (exposed to 0-90% RH), PLM, SEM, and HPLC (Table 5). […]

[2] = Gravimetric Vapour Sorption (GVS) with XRPD post-GVS; conditions: listed as Pattern B
Procedure: Sorption isotherms were obtained using a SMS DVS Intrinsic moisture sorption analyzer, controlled by DVS Intrinsic Control software v1.0.1.2 (or v 1.0.1.3). The sample temperature was maintained at 25° C. by the instrument controls. The humidity was controlled by mixing streams of dry and wet nitrogen, with a total flow rate of 200 ml/min. The relative humidity was measured by a calibrated Rotronic probe (dynamic range of 1.0-100% RH), located near the sample. The weight change, (mass relaxation) of the sample as a function of % RH was constantly monitored by the microbalance (accuracy ±0.005 mg).
A sample (e.g., 20 mg) was placed in a tared mesh stainless steel basket under ambient conditions. The sample was loaded and unloaded at 40% RH and 25° C. (typical room conditions). A moisture sorption isotherm was performed as outlined below (2 scans giving 1 complete cycle). Standard isotherms were performed at 25° C. at 10% RH intervals over a 0-90% RH range. Data analysis was carried out using Microsoft Excel using DVS Analysis Suite v6.2 (or 6.1 or 6.0).
In a cycle of 2 scans, the first scan was performed with adsorption of 40-90% RH, followed by a second scan with desorption of 90-0% RH and adsorption of 0-40% RH, with intervals of 10% RH, at 25° C. with stability dm/dt of 0.002% ° C./min. The sorption time was 6 hr time out.
The sample was recovered after completion of the isotherm and re-analyzed by XRPD. Custom moisture sorption methods were also performed at 25° C. at fixed % RH intervals over a 0-95% RH range, with the purpose to fully understand the sorption/desorption behavior of the compound under elevated conditions.
To further explore the humidity behavior of Sample 1 (Form 1) upon exposure to high RH (>90%), custom GVS experiments were designed and carried out. Initially, the sample was treated by holding at 90 and then 95% RH for ˜12 hours to see if hydrate formation could be observed (HighRH method of Steps 1 and 2 of Table 2, FIGS. 6C-6D).
To test the stability of the hydrated state, GVS method HighRH_Desorp_3 was designed with a desorption step and subsequent adsorption (see Table 2 with steps 1-4, FIGS. 6E-6F).
Finally, to ensure complete conversion to the anhydrous and hydrated forms, a GVS experiment was designed to increase both the length of the desorption step at 0% RH, and the adsorption step at 95% RH, respectively (Table 3). Based on the weight stabilization observed in the kinetic plots for Sample 1 in HighRH and HighRH_Desorp_3 methods discussed above (FIGS. 6D and 6F), a holding time of 800 mins at 0% RH and 1600 mins at 95% RH were chosen. A double cycle was also recorded for this experiment to observe whether the sample would return to Form 1 or form a mixed anhydrous/hydrated species (see Table 3, FIGS. 6G-6H).

[3] = Solubility assessment and polymorph screen on amorphous RAD1901-2HCl; conditions: for XRPD post 50° C./RT (form): after maturation at 50° C./RT; for XRPD post 25° C. (form): after maturation at 25° C.; for Solubility observation at 10 vol.: amorphous RAD1901-2HCl, 10 vol. solvent (solvent per sample ID)
Procedure: In a scale-up preparation of amorphous RAD1901-2HCl, RAD1901-2HCl (600 mg) was dissolved in water (20 vol., 12 mL) and filtered to remove any remaining solid particles. The solution was then aliquoted into 24 HPLC vials, frozen in a dry ice/acetone bath and the solvent removed by lyophilisation. Solids produced by lyophilization were used directly in solubility assessment and polymorph screens in Example 4.
Amorphous RAD1901-2HCl prepared as described in Example 3B was used directly in solubility assessment and polymorph screens (Table 15). XRPD patterns were further obtained for amorphous RAD1901-2HCl prepared using other solvents.
In the polymorph screen of the amorphous RAD1901-2HCl prepared as described in Example 3B, an aliquot of each sample was examined for its morphology under the microscope, both after maturing at 25° C., and after maturing at 50° C./RT. […] In some instances, the sample appeared to be a mixture of various polymorphic forms, e.g. Form 2 and Form 3 (FIGS. 18B-18C), similar to the mixture of Forms 2 and 3 in Sample 2 having an equilibrium between the two solid forms, depending on the prevailing RH.

[4] = Solubility assessment of amorphous RAD1901-2HCl in water/organic solvent mixtures; conditions: for XRPD (form) after stirring: after stirring at 25° C. for 72 hours
Procedure: Samples of amorphous RAD1901-2HCl were prepared in water/organic solvent mixtures containing varying ratios of water. The organic solvents chosen were anhydrous ethanol, methanol and ethyl acetate. The percentage of water in the water/organic solvent mixtures was varied between 0 and 10% (v/v) in order to place a limit on the level of water that can be present during production processes, and to retain formation of Form 1. Above this water activity limit, the hydrated Form 3 will be obtained, as shown by GVS experiments (see FIGS. 6G and 20A). It should be noted that samples prepared in ethyl acetate, were either slurried in anhydrous ethyl acetate, or in water saturated ethyl acetate.
The water activity values for each water/organic solvent mixture are provided in Table 16, and were calculated using the reference given in Bell, Halling, Enzyme Microbiol. Technol. 1997, 20, 471, incorporated herein by reference.

Compound: CCNCCc1ccc(CN(CC)c2cc(OC)ccc2[C@@H]2CCc3cc(O)ccc3C2)cc1.Cl.Cl [Form 1B]
- XRPD after storage at 25° C./97% RH for 1 week (solid form) ([1]; 25° C./97% RH, 1 week (7 days), listed as Pattern B): Unchanged post storage at both conditions
- XRPD after storage at 40° C./75% RH for 1 week (solid form) ([1]; 40° C./75% RH, 1 week (7 days), listed as Pattern B): Unchanged post storage at both conditions
- GVS total mass change between 0 and 90% RH ([2]; 0-90% RH (Table 17)): Total change in mass of 1.4% wt. between 0 and 90% RH,
- XRPD post GVS (uptake 0-90% RH) ([2]; after GVS 0-90% RH, 25° C.): no hysteresis. XRPD post-GVS is consistent with Pattern

Compound: CCNCCc1ccc(CN(CC)c2cc(OC)ccc2[C@@H]2CCc3cc(O)ccc3C2)cc1.Cl.Cl [Form 3]
- Form obtained on exposure to <40% RH for 8 hr ([1]; <40% RH, 8 hr): Form 2

Compound: CCNCCc1ccc(CN(CC)c2cc(OC)ccc2[C@@H]2CCc3cc(O)ccc3C2)cc1.Cl.Cl [Form B16.]
- XRPD post 50° C./RT (form) [3]: Form 3*

Compound: CCNCCc1ccc(CN(CC)c2cc(OC)ccc2[C@@H]2CCc3cc(O)ccc3C2)cc1.Cl.Cl [Form B17.]
- Observation After maturation at 50° C. [3]: Fine
- XRPD post 50° C./RT (form) [3]: Form 1*

Compound: CCNCCc1ccc(CN(CC)c2cc(OC)ccc2[C@@H]2CCc3cc(O)ccc3C2)cc1.Cl.Cl [Form B19.]
- XRPD post 25° C. (form) [3]: Form 3
- Solubility observation at 10 vol. [3]: X (X = suspension)
- Observation After maturation at 25° C. [3]: Crystal
- Observation After maturation at 50° C. ([3]; maturation at 50° C./RT): Green

Compound: CCNCCc1ccc(CN(CC)c2cc(OC)ccc2[C@@H]2CCc3cc(O)ccc3C2)cc1.Cl.Cl [Form B20.]
- XRPD post 50° C./RT (form) [3]: Form 1
- Solubility observation at 10 vol. [3]: X (X = suspension)
- Observation After maturation at 50° C. ([3]; maturation at 50° C./RT): Crystalline

Compound: CCNCCc1ccc(CN(CC)c2cc(OC)ccc2[C@@H]2CCc3cc(O)ccc3C2)cc1.Cl.Cl [Form B21.]
- XRPD post 25° C. (form) [3]: Form 1
- Observation After maturation at 50° C. ([3]; maturation at 50° C./RT): Needle

Compound: CCNCCc1ccc(CN(CC)c2cc(OC)ccc2[C@@H]2CCc3cc(O)ccc3C2)cc1.Cl.Cl [Form B22.]
- XRPD post 25° C. (form) [3]: Form 3
- Solubility observation at 10 vol. [3]: S (S = solution)
- Observation After maturation at 25° C. [3]: S
- Observation After maturation at 50° C. ([3]; maturation at 50° C./RT): Green

Compound: CCNCCc1ccc(CN(CC)c2cc(OC)ccc2[C@@H]2CCc3cc(O)ccc3C2)cc1.Cl.Cl [Form B23.]
- XRPD post 25° C. (form) [3]: Form 3
- XRPD post 50° C./RT (form) [3]: Form 3
- Solubility observation at 10 vol. [3]: X (X = suspension)
- Observation After maturation at 50° C. ([3]; maturation at 50° C./RT): Fine

Compound: CCNCCc1ccc(CN(CC)c2cc(OC)ccc2[C@@H]2CCc3cc(O)ccc3C2)cc1.Cl.Cl [Form B24.]
- XRPD post 25° C. (form) [3]: Form 3
- XRPD post 50° C./RT (form) [3]: Form 3
- Solubility observation at 10 vol. [3]: X (X = suspension)
- Observation After maturation at 50° C. ([3]; maturation at 50° C./RT): Fine

Compound: CCNCCc1ccc(CN(CC)c2cc(OC)ccc2[C@@H]2CCc3cc(O)ccc3C2)cc1.Cl.Cl [Form C1.]
- XRPD (form) after stirring [4]: Form 3

Compound: CCNCCc1ccc(CN(CC)c2cc(OC)ccc2[C@@H]2CCc3cc(O)ccc3C2)cc1.Cl.Cl [Form C2.]
- XRPD (form) after stirring [4]: Form 1

Compound: CCNCCc1ccc(CN(CC)c2cc(OC)ccc2[C@@H]2CCc3cc(O)ccc3C2)cc1.Cl.Cl [Form C3.]
- XRPD (form) after stirring [4]: Form 1

Compound: CCNCCc1ccc(CN(CC)c2cc(OC)ccc2[C@@H]2CCc3cc(O)ccc3C2)cc1.Cl.Cl [Form C4.]
- XRPD (form) after stirring [4]: Form 1

Compound: CCNCCc1ccc(CN(CC)c2cc(OC)ccc2[C@@H]2CCc3cc(O)ccc3C2)cc1.Cl.Cl [Form C5.]
- Observation After stirring at 25° C. for 72 hours [4]: S

Compound: CCNCCc1ccc(CN(CC)c2cc(OC)ccc2[C@@H]2CCc3cc(O)ccc3C2)cc1.Cl.Cl [Form C6.]
- Observation After stirring at 25° C. for 72 hours [4]: Crystals
- XRPD (form) after stirring [4]: Form 3*

Compound: CCNCCc1ccc(CN(CC)c2cc(OC)ccc2[C@@H]2CCc3cc(O)ccc3C2)cc1.Cl.Cl [Form C7.]
- Observation After stirring at 25° C. for 72 hours [4]: Crystals
- XRPD (form) after stirring [4]: Form 2

Compound: CCNCCc1ccc(CN(CC)c2cc(OC)ccc2[C@@H]2CCc3cc(O)ccc3C2)cc1.Cl.Cl [Form C8.]
- Observation After stirring at 25° C. for 72 hours [4]: Crystals
- XRPD (form) after stirring [4]: Form 2

Compound: CCNCCc1ccc(CN(CC)c2cc(OC)ccc2[C@@H]2CCc3cc(O)ccc3C2)cc1.Cl.Cl [Form C9.]
- Solubility observation at 20 vol. [4]: X (X = suspension)
- Solubility observation at 30 vol [4]: X (X = suspension)
- XRPD (form) after stirring [4]: Form 1*

Compound: CCNCCc1ccc(CN(CC)c2cc(OC)ccc2[C@@H]2CCc3cc(O)ccc3C2)cc1.Cl.Cl [Form C10.]
- Solubility observation at 20 vol. [4]: X (X = suspension)
- Solubility observation at 30 vol [4]: X (X = suspension)
- XRPD (form) after stirring [4]: Form 3

Compound: CCNCCc1ccc(CN(CC)c2cc(OC)ccc2[C@@H]2CCc3cc(O)ccc3C2)cc1.Cl.Cl [amorphous RAD1901-2HCl]
- Form crystallized in anhydrous ethanol ([4]; anhydrous ethanol): Form 1
- Form produced by slurrying in anhydrous ethyl acetate ([4]; anhydrous ethyl acetate): Form 1
- Form crystallized in anhydrous methanol ([4]; anhydrous methanol): Form 2
- Form produced by slurrying in water-saturated ethyl acetate ([4]; water-saturated ethyl acetate, water activity 0.77): Form 3
- Ratio of water/ethanol up to which crystals were Form 1 ([4]; water/ethanol): up to 5%
- Water activity limit above which hydrate Form 3 results instead of Form 1 ([4]; water/ethanol): 0.39
- Ratio of water/methanol up to which crystals were Form 2 ([4]; water/methanol): ≤ 2%
- Water activity limit above which hydrate Form 3 results instead of Form 2 ([4]; water/methanol): 0.08

Reference: US11643385B2, “Polymorphic forms of RAD1901-2HCl” (RADIUS PHARMACEUTICALS, INC., priority 2018, dated 2023)
